From US20240018132A1, “5-HYDROXY-1,4-NAPHTHALENEDIONE FOR USE IN THE TREATMENT OF CANCER” (GODAVARI BIOREFINERIES LIMITED, priority 2020, published 2024)
“And” between values parts separate entries of the source, which are not always exact repeats. Identical values can stand only once. Like-named read-outs stand apart in the source and are kept apart here. Values belong to the compound of their own block, whether it stands above or below them.

Legend:
[1] = test system: MDAMB231; assay: In vitro antiproliferative assay (MTT assay), breast cancer cell line; type: cell-based; details: MTT assay, breast cancer MDAMB231, 48 hrs drug incubation
Procedure, shortened: (§1)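 Compound exposure lasted 48 h at 37 °C in 5% CO2, following a 24 h attachment period; DMSO stocks were 0.1 M. Metabolic reduction of MTT (0.5 mg/ml, 4 h), solubilized in DMSO, gave viability, plotted as log % viability versus log drug concentration.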

[2] = test system: PC3; assay: In vitro antiproliferative assay (MTT assay), prostate cancer cell line; type: cell-based; details: MTT assay, prostate cancer PC3, 48 hrs drug incubation
Procedure, shortened: as §1

[3] = test system: MDAMB231; details: human, 216 h
Method: (§7) In Vitro Sphere-forming Assay: Sphere assay measures the ability of cancer stem cells (CSCs) to form spheres in specially designed serum-free medium.
(§8) Mammosphere Media Preparation (For 100 mL): 1 g methyl cellulose autoclaved with magnetic stirrer, 100 ml plain media (MEBM) was added and dissolved under magnetic stirring. After complete dissolution FGF-80 μL, EGF-40 μL, Penstrep-1 mL, Heparin-400 μL was added.
(§9) Procedure—The cells were trypsinised and made into single-cell suspension by passing through cell strainers (100 μl and 40 μl, respectively), The cells were diluted at a concentration of 2000 cells/100 μL and suspended in either Mammosphere (for breast cell lines) or Prostosphere (for prostate cell lines). 100 μL of this suspension was added into each well of 96-well suspension plates and incubated at 37° C., 5% CO2 for 24 hrs. Appropriate concentrations of the drugs (2 μL) were added into respective wells with 100 μL of stem cell culture medium. Plates were incubated at 37° C., 50 CO2 for 72 hrs. After incubation, 2.5 μL of the respective drug concentration and 50 μL of stem cell culture medium were added into each well and the plates were further incubated at 37° C., 50% CO2 for 72 hrs. 3 μL of the respective drug concentration was added with 50 μL of stem cell culture medium again after incubation and plates were reincubated for 72 hrs at 37° C., 50 CO2. Number of primary spheres formed for each concentration were counted. The spheres were converted to 0 viability of spheres compared to untreated (Growth Control with DMSO, GCD).

[4] = test system: PC3; details: human, 216 h
[5] = test system: MDAMB231; assay: In vitro sphere-forming assay (cancer stem cells), Mammosphere media; details: Mammosphere media, 2000 cells/well, n = 6 ± S.D
Method: as §7, §8, §9

[6] = test system: PC3; assay: In vitro sphere-forming assay (cancer stem cells), Prostosphere media; details: Prostosphere media, 2000 cells/well, n = 6 ± S.D
[7] = test system: MDAMB231; assay: Soft agar colony-formation assay, breast cancer; type: cell-based; details: Soft Agar Assay, 1 week, Alamar Blue
Method: (§2) The Soft Agar Colony-formation Assay is an anchorage-independent growth assay in soft agar, which is one of the most stringent assays for detecting malignant transformation of cells. For this assay, malignant cells are cultured with appropriate controls in soft agar medium for 1-2 weeks. Following this incubation period, formed colonies can either be analyzed morphologically using cell stain and quantifying the number of colonies formed.
(§3) Briefly, for Soft Agar Assay a mixture of 50 ul of 2× medium (taken appropriately as per cell line) and 50 ul of 1.2% Bacto Agar were plated on to each well of 96 well micro titer assay plate. 10 ul of cells (of specific plating efficiency pre standardized for respective cell line) were mixed with 20 ul of 2× medium and 30 ul of 0.8% of Bacto Agar and 1.6 ul of drug (of appropriate concentration) in a vial and transferred to the solidified pre layers of the assay plates. The cells were then allowed to grow and form colonies at 37° C. and 5% CO2 for 1 week. An intermittent feeding with 50 ul of appropriate 2× medium was performed after 3 days of experimental set up. 16 ul of Alamar Blue (1.5 mg/ml) was then added to all the wells to quantify the developed colonies. The plates were incubated for 24 hrs at 37° C. Absorbance was then measured at 630 nm. XY graph of log Percent viability was then plotted against log drug concentration.
(§4) Following plating efficiencies were standardized for Soft Agar Assay: […]

[8] = test system: PC3; assay: Soft agar colony-formation assay, prostate cancer; type: cell-based; details: Soft Agar Assay, 1 week, Alamar Blue
Method: as §2, §3, §4

[9] = test system: MDAMB231; assay: Wound Healing Assay (WHA), breast cancer cell line; type: cell-based; details: IC10 conc. of compound
Method: (§5) Wound Healing Assay (WHA) determines the ability of cancer stem cells to heal the wound formed in a confluent monolayer.
(§6) Procedure: 0.35×10^6 cells were plated in each well of 6 Tissue Culture well plates. The plate was incubated for 48 hrs at 37° C., 5% CO2. […] IC10 conc. of the respective compound was added into each well. The plates were incubated at 37° C., 5% CO2 and the width of scratch was measured at various time intervals such as 6, 24 and 48 hours. Average of 3 distances were taken for each time point using IS camera Measure. A plot of average width of scratch in micrometer was plotted against the time interval after treatment.

[10] = test system: PC3; assay: Wound Healing Assay (WHA), prostate cancer cell line; type: cell-based; details: IC10 conc. of compound
Method: as §5, §6

[11] = test system: Aldehyde dehydrogenase (ALDH); assay: Aldehyde Dehydrogenase (ALDH) assay, ELISA kit; type: cell-based; details: MDAMB231, 48 hrs
Source text: Aldehyde dehydrogenases (ALDH) are a family of enzymes that catalyze the metabolism of exogenous and endogenous aldehydes, preventing the accumulation of potentially reactive and toxic aldehydes and their metabolites. In addition to their role in aldehyde metabolism, ALDH enzymes also play critical roles in other cellular processes such as cell proliferation, differentiation, and survival. ALDH also serves as a marker for certain stem cell populations including hematopoietic stem cells and certain cancer stem cells. ALDH concentration was determined by using ([…] Dx) ELISA kit by following protocol: • 1 Standards (50 μl)/sample (40 μl) were added to the respective wells, (except Blank). • 2. (10 μl) Antibody-Biotin conjugate was then added in each sample well (except Blank). • 3. (50 μl) of Horse Radish Peroxidase (HRP) Conjugate was then added to each well (except Blank). • 4. The plates were incubated for one hour at 37° C. in the incubator. • 5. Wash (4 times with wash buffer) and blot residual buffer by firmly tapping the plate on the absorbent paper. Wipe off any liquid from the bottom of the microtiter wells as any residue can interfere in the reading step. • 6. Add TMB substrate A (50 μl) and then TMB substrate B (50 μl) to each well including Blank as well. • 7. Incubate for 10 mins at 37° C. in dark. • 8. Add (50 μl) stop solution. Wells should turn from blue to yellow. • 9. Read absorbance at 450 nm. • 10 A X-Y graph of concentration vs optical density was plotted. ALDH concentration was calculated by substituting optical density values in the regression analysis equation.

IC50 [1]: 0.631 µM
IC50 [2]: 2.19 µM
SMILES: COc1ccc(OC2=CC(=O)c3c(OCCN4CCOCC4)cccc3C2=O)cc1 [Formula 81]
% Viability of spheres (MDAMB231) ([3]; 0.0025 uM): 82(±4) %
% Viability of spheres (MDAMB231) ([3]; 0.025 uM): 61(±3) %
% Viability of spheres (MDAMB231) ([3]; 0.25 uM): 46(±3) %
% Viability of spheres (MDAMB231) ([3]; 2.5 uM): 33(±4) %
% Viability of spheres (MDAMB231) ([3]; 25 uM): 21(±3) %
% Viability of spheres (PC3) ([4]; 0.0025 uM): 75(±4) %
% Viability of spheres (PC3) ([4]; 0.025 uM): 57(±5) %
% Viability of spheres (PC3) ([4]; 0.25 uM): 46(±4) %
% Viability of spheres (PC3) ([4]; 2.5 uM): 30(±4) %
% Viability of spheres (PC3) ([4]; 25 uM): 21(±3) %
3D sphere count of MDAMB231 ([5]; drug 0.0025 uM): 82(±4)
3D sphere count of MDAMB231 ([5]; drug 0.025 uM): 61(±3)
3D sphere count of MDAMB231 ([5]; drug 0.25 uM): 46(±3)
3D sphere count of MDAMB231 ([5]; drug 2.5 uM): 33(±4)
3D sphere count of MDAMB231 ([5]; drug 25 uM): 21(±3)
3D sphere count of PC3 ([6]; drug 0.0025 uM): 75(±4)
3D sphere count of PC3 ([6]; drug 0.025 uM): 57(±5)
3D sphere count of PC3 ([6]; drug 0.25 uM): 46(±4)
3D sphere count of PC3 ([6]; drug 2.5 uM): 30(±4)
3D sphere count of PC3 ([6]; drug 25 uM): 21(±3)

SMILES: N.N.[Cl][Pt][Cl] [Cisplatin, reference compound]
IC50 [1]: 31 µM
IC50 [2]: 35.9 µM
IC50 [7]: 35.2 µM
IC50 [8]: 34.4 µM
% inhibition of Wound Healing for Breast Cancer Cell line (MDAMB231) after 48 hrs [9]: 33.78%
% inhibition of Wound Healing for Prostate Cancer Cell line (PC3) after 48 hrs [10]: 25.13%
% inhibition of ALDH on Breast Cancer Cell line (MDAMB231) after 48 hrs [11]: 26.45%
3D sphere count of MDAMB231 ([5]; drug 250 uM): 28(±3) and 26(±3)
